Experimental data published in patent publication US20220370445A1, “METHODS FOR ADMINISTERING (R)-N-[4-(1,4,5,6-TETRAHYDRO-6-OXO-3-PYRIDAZINYL)PHENYL]ACETAMIDE” (ORION CORPORATION, priority 2019, published 2022).
Where a name gives a salt, the structure may show the parent alone.

Assays:
[1] = Bioavailability of compound (I) by ocular, intranasal or oromucosal administration vs i.v. in dogs; type: in vivo; conditions: Beagle dogs; for bioavailability: dog, plasma, n=6
Experimental: (§1) Bioavailability of compound (I) given by ocular (4 μg/kg), intranasal (4 μg/kg) or oromucosal dosing (5 μg/kg) was compared to 4 μg/kg intravenous (i.v.) administration in Beagle dogs.
The study was a crossover study with at least 6 days washout period between the treatment periods. The animals were fasted overnight before dosing by withdrawing the remaining feed (if any) at least 12 h before dosing. On dosing days, food was offered approximately at 4 h after dosing (after the 4 h blood sampling).
(§2) Composition of Formulation Example 1 was used for ocular administration, composition of Formulation Example 2 was used for intranasal administration and composition of Formulation Example 3 was used for oromucosal administration.
(§3) Ocular and intranasal doses were divided equally to both eyes or both nostrils. Oromucosal gel formulation was administered to buccal/gingival mucosa of the dog. The intravenous dose was administered in cephalic vein in slow i.v. bolus dosed within 30 seconds. Blood samples were collected into K2EDTA tubes over a 48 h period after each treatment at the following time points: predose, 2 min, 5 min, 10 min, 20 min, 30 min, 45 min, 1 h, 2 h, 4 h, 6 h, 8 h, 12 h, 24 h and 48 h post administration. Aliquots of plasma were prepared and stored frozen until analysis. Compound (I) concentration in plasma was determined using Liquid chromatography-triple quadrupole mass spectrometry. The lower limit of quantification for compound (I) in dog plasma was 0.1 ng/ml.

[2] = Local tolerance of compound (I) given by ocular, intranasal or oromucosal administration to dogs; type: in vivo; conditions: any administration route (ocular, intranasal, oromucosal), Beagle dogs
Experimental: Experiment 1. Bioavailability and Local Tolerance of Compound (I) Given by Ocular, Intranasal or Oromucosal Administration to Dogs.
as §1, §2, §3

[3] = Bioavailability of compound (I) given by oropharyngeal aspiration to rats vs i.v.; type: in vivo, Male Sprague Dawley rats; conditions: for bioavailability: male, Sprague Dawley, rat, plasma, other: oropharyngeal aspiration, read-out: bioavailability of oropharyngeal administration
Experimental: Oropharyngeal aspiration administration has been developed as an alternative technique for the inhaled delivery of medicaments to the lungs and provides a means to mimic human lung exposure of medicaments by inhalation (Hulland, K. et al., American Journal of Respiratory and Critical Care Medicine 2016, 193:A5928 and Barbayianni, I. et al., Frontiers of Medicine, September 2018, Vol 5, Article 269, 1-6).
Bioavailability of compound (I) given by oropharyngeal aspiration (dosing 10 or 20 μg/kg) was compared to 10 μg/kg intravenous (i.v.) administration in Male Sprague Dawley rats.
Composition for oropharyngeal dosing was as follows:
The oropharyngeal dose was administered to animals which were lightly anaesthetized by isoflurane inhalation. The animals were placed on a vertical stand the top teeth hooked over a rubber band to open the mouth. The 100 μl dose was dispensed by positive displacement pipette at the back of the throat of the animal while holding the tongue to prevent swallowing and nose held to encourage breathing through the mouth for (at least) 3 breaths. The nose released but tongue continually held for an additional couple of breaths to ensure solution deposited in the lungs and not swallowed. All animals recovered consciousness post dose.
The intravenous dose was administered as a slow bolus injection over 30 seconds via the lateral tail vein.
Blood samples were collected into a K2EDTA tube such as to obtain a sample after 5 min, 15 min, 30 min, 1 h, 3 h, 5 h, 8 h, 12 h, 24 h and 48 h post administration.
Aliquots of plasma were prepared and stored frozen until analysis. Compound (I) concentration in plasma was determined using a liquid chromatography-tandem mass spectrometry (LC-MS/MS). The lower limit of quantification for compound (I) in rat plasma was 0.02 ng/ml.

heart rate = test: Effect of compound (I) alone or together with ivabradine on heart rate by oromucosal administration (telemetry); type: in vivo, Beagle dogs
Experimental: Male beagle dogs (n=3) were given a dose of compound (I) using oromucosal gel according to Formulation Example 3a alone (dosing period 1) or together with a dose of ivabradine using oromucosal gel according to Formulation Example 3c (dosing period 2). The dose of compound (I) was 18.5 μg/kg and the dose of ivabradine was 1 mg/kg (calculated as ivabradine base). Each dose was divided into two sites on gingival mucosa. The washout period between the dosing periods was at least 6 days. Heart rate of the animals was assesses at baseline and post-dosing using telemetry acquisition system.

[4] = in man; cited from earlier work

| Structure (SMILES) | bioavailability ([1]; other: intranasal (drops), 4 ug/kg, intranasal drops 4 μg/kg vs 4 μg/kg i.v.) [%] | bioavailability ([1]; other: ocular (eye drops), 4 ug/kg, eye drops, ocular 4 μg/kg vs 4 μg/kg i.v.) [%] | bioavailability ([1]; other: oromucosal (gel to buccal/gingival mucosa), 5 ug/kg, oromucosal gel 5 μg/kg vs 4 μg/kg i.v.) [%] | absorption ([1]; ocular drops, intranasal drops or oromucosal gel) | irritation (local tolerance) [2] | bioavailability ([3]; oropharyngeal 0.01 mg/kg vs 0.01 mg/kg i.v.) [%] | bioavailability ([3]; oropharyngeal 0.02 mg/kg vs 0.01 mg/kg i.v.) [%] | absorption ([3]; oropharyngeal route) | heart rate after dosing (heart rate; oromucosal gel 18.5 μg/kg alone, male beagle dogs n=3, baseline 93±9 bpm) [bpm] | elimination half-life [4] | prevention of heart rate increase induced by compound (I) (heart rate; oromucosal 1 mg/kg concurrent with compound (I) 18.5 μg/kg oromucosal, beagle dogs) |
| --- | --- | --- | --- | --- | --- | --- | --- | --- | --- | --- | --- |
| CC(=O)Nc1ccc(C2=NNC(=O)C[C@H]2C)cc1 [Compound (I), (R)—N-[4-(1,4,5,6-tetrahydro-4-methyl-6-oxo-3-pyridazinyl)phenyl]acetamide] | 82 | 67 | 78 | fast absorption comparable to intravenous administration | No significant irritation | 94.9 | 97.1 | fast absorption comparable to intravenous administration | 167±8 | about 72 h | – |
| COc1cc2c(cc1OC)CC(=O)N(CCCN(C)C[C@H]1Cc3cc(OC)c(OC)cc31)CC2 [ivabradine hydrochloride, reference compound] | – | – | – | – | – | – | – | – | – | – | completely prevent the heart rate increase |
